Results as given in US20220041647A1, “ESTRA-1,3,5(10)-TRIENE COMPOUNDS CONDENSED IN POSITION 16(17) WITH A PYRAZOLE RING AS INHIBITORS OF 17-HSD1” (FORENDO PHARMA LTD, priority 2018, published 2022).

Experiments:
[1] = target: T1, recombinant human 17β-HSD1 (Homo sapiens, UniProt P14061); test: Inhibition of recombinant human 17β-HSD1 (estrone to estradiol conversion, HPLC/radioactivity); format: biochemical; conditions: compound 100 nM; 30 nM estrone, 1 mM NADPH, 30 min RT
T1 construct: made in house; host or cells: Sd9 (Sf9) insect cells, baculovirus (Bac to Bac Expression System)
T1 sequence (P14061 1-328): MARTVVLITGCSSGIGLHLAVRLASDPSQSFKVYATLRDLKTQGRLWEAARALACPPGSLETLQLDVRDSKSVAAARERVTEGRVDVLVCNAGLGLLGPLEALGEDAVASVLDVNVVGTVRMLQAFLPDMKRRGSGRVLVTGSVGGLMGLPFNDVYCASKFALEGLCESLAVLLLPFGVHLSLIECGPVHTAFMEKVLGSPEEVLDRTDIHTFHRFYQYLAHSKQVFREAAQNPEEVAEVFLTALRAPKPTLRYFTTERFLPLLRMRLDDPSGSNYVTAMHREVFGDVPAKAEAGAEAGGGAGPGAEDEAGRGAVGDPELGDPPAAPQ
Outline: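 Microsomal human 17β-HSD1 from Sf9 baculovirus (1 μg/ml) was incubated 30 min at RT in 20 mM KH2PO4 pH 7.4 with 30 nM ^3H-estrone, 1 mM NADPH and inhibitor at 1 μM or 0.1 μM (1% DMSO). Estrone and estradiol were separated by HPLC with radioactivity detection. % inhibition = 100 − % conversion relative to uninhibited control.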

[2] = Metabolic stability assay, human hepatocyte incubations; format: in vitro ADME; conditions: compound 1 μM, human hepatocytes, 0-60 min at 37° C.; read-out: Human hepatocytes MetStab T½ min
Method: Compound stock solutions of the invention were prepared in […]. Final concentration of DMSO was adjusted to 1% in all samples. The in vitro metabolic stability of the compounds of the invention was determined for exemplified compounds using human hepatocyte incubations; study compounds at concentration of 1 μM were incubated 0, 10, 20, 40 and 60 min at 37° C. Samples were collected at all time points and compounds were detected by LC-MS/MS analysis. The percent compound remaining is calculated by comparing the peak area of the parent compound at each time point to time zero. In vitro metabolic stability was determined as half life (T1/2), which was determined by regression analysis of the percent parent disappearance vs. time curve.

[3] = system: HSD1 enzyme that is expressed in rabbit placenta tissue; test: Inhibition of E1 to E2 conversion in rabbit placenta tissue homogenate; format: biochemical; conditions: compound 100 nM, 30 nM estrone, 1 mM β-NADPH, 30 min
Outline: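 Rabbit placenta homogenate (20 mM KH2PO4, 1 mM EDTA, pH 7.4) incubated 30 min with 1 mM β-NADPH, 30 nM estrone plus 5 nM [3H]-estrone tracer, and inhibitor at 1 μM or 0.1 μM (1% DMSO). Stopped with TCA; estrone and estradiol resolved by HPLC with scintillation counting; % inhibition = 100 − % conversion relative to uninhibited control.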

Compound	inhibition at 0.1 µM [1] [%]	half-life at 1 μM [2] [min]	Rabbit placenta inhibition % @100 nM [3] [%]
C[C@]12CCC3c4cccc(F)c4CCC3C1[C@H](CCC(=O)Nc1ncc(F)cc1F)c1c[nH]nc12 (stereo partly drawn) [Compound 9, N-(3,5-difluoropyridin-2-yl)-3-((8aS,12S)-3-fluoro-8a-methyl-1,2,6b,7,8,8a,10,12,12a,12b-decahydronaphtho[2′,1′:4,5]indeno[1,2-c]pyrazol-12-yl)propanamide]	82	61	26
C[C@]12CCC3c4cccc(F)c4CCC3C1[C@H](CCC(=O)Nc1cc(F)ccn1)c1c[nH]nc12 (stereo partly drawn) [Compound 15, 3-((8aS,12S)-3-fluoro-8a-methyl-1,2,6b,7,8,8a,10,12,12a,12b-decahydronaphtho[2′,1′:4,5]indeno[1,2-c]pyrazol-12-yl)-N-(4-fluoropyridin-2-yl)propanamide]	96	43	64
C[C@]12CCC3c4cccc(F)c4CCC3C1[C@H](CCC(=O)Nc1ccccn1)c1c[nH]nc12 (stereo partly drawn) [Compound 18, 3-((8aS,12S)-3-fluoro-8a-methyl-1,2,6b,7,8,8a,10,12,12a,12b-decahydronaphtho[2′,1′:4,5]indeno[1,2-c]pyrazol-12-yl)-N-(pyridin-2-yl)propanamide]	91	41	44
COc1ccc(NC(=O)CC[C@@H]2c3c[nH]nc3[C@@]3(C)CCC4c5cccc(F)c5CCC4C23)nc1 (stereo partly drawn) [Compound 21, 3-((8aS,12S)-3-fluoro-8a-methyl-1,2,6b,7,8,8a,10,12,12a,12b-decahydronaphtho[2′,1′:4,5]indeno[1,2-c]pyrazol-12-yl)-N-(5-methoxypyridin-2-yl)propanamide]	97	40	68
C[C@]12CCC3c4cccc(F)c4CCC3C1[C@H](CCC(=O)N1CCNC(=O)C1)c1c[nH]nc12 (stereo partly drawn) [Compound 24, 4-(3-((8aS,12S)-3-fluoro-8a-methyl-1,2,6b,7,8,8a,10,12,12a,12b-decahydronaphtho[2′,1′:4,5]indeno[1,2-c]pyrazol-12-yl)propanoyl)piperazin-2-one]	83	33	27
C[C@]12CCC3c4cccc(F)c4CCC3C1[C@H](CCC(=O)Nc1cc3c([nH]c1=O)CCCC3)c1c[nH]nc12 (stereo partly drawn) [Compound 30, 3-((8aS,12S)-3-fluoro-8a-methyl-1,2,6b,7,8,8a,10,12,12a,12b-decahydronaphtho[2′,1′:4,5]indeno[1,2-c]pyrazol-12-yl)-N-(2-oxo-1,2,5,6,7,8-hexahydroquinolin-3-yl)propanamide]	95	117	53
CN(C)C(=O)c1ccc(NC(=O)CC[C@@H]2c3c[nH]nc3[C@@]3(C)CCC4c5cccc(F)c5CCC4C23)nc1 (stereo partly drawn) [Compound 33, 6-(3-((8aS,12S)-3-fluoro-8a-methyl-1,2,6b,7,8,8a,10,12,12a,12b-decahydronaphtho[2′,1′:4,5]indeno[1,2-c]pyrazol-12-yl)propanamido)-N,N-dimethylnicotinamide]	95	107	68
CC(C)c1ccc(NC(=O)CC[C@@H]2c3c[nH]nc3[C@@]3(C)CCC4c5cccc(F)c5CCC4C23)nc1 (stereo partly drawn) [Compound 36, 3-((8aS,12S)-3-fluoro-8a-methyl-1,2,6b,7,8,8a,10,12,12a,12b-decahydronaphtho[2′,1′:4,5]indeno[1,2-c]pyrazol-12-yl)-N-(5-isopropylpyridin-2-yl)propanamide]	100	37	55
C[C@]12CCC3c4cccc(F)c4CCC3C1[C@H](CCC(=O)Nc1ccc(N3CCOCC3)cn1)c1c[nH]nc12 (stereo partly drawn) [Compound 39, 3-((8aS,12S)-3-fluoro-8a-methyl-1,2,6b,7,8,8a,10,12,12a,12b-decahydronaphtho[2′,1′:4,5]indeno[1,2-c]pyrazol-12-yl)-N-(5-morpholinopyridin-2-yl)propanamide]	91	67	69
CN1CCN(c2ccc(NC(=O)CC[C@@H]3c4c[nH]nc4[C@@]4(C)CCC5c6cccc(F)c6CCC5C34)nc2)CC1 (stereo partly drawn) [Compound 42, 3-((8aS,12S)-3-fluoro-8a-methyl-1,2,6b,7,8,8a,10,12,12a,12b-decahydronaphtho[2′,1′:4,5]indeno[1,2-c]pyrazol-12-yl)-N-(5-(4-methylpiperazin-1-yl)pyridin-2-yl)propanamide]	91	47	82
COc1ccnc(NC(=O)CC[C@@H]2c3c[nH]nc3[C@@]3(C)CCC4c5cccc(F)c5CCC4C23)c1 (stereo partly drawn) [Compound 48, 3-((8aS,12S)-3-fluoro-8a-methyl-1,2,6b,7,8,8a,10,12,12a,12b-decahydronaphtho[2′,1′:4,5]indeno[1,2-c]pyrazol-12-yl)-N-(4-methoxypyridin-2-yl)propanamide]	91	34	57
C[C@]12CCC3c4cccc(F)c4CCC3C1[C@H](CCC(=O)Nc1cnccn1)c1c[nH]nc12 (stereo partly drawn) [Compound 51, 3-((8aS,12S)-3-fluoro-8a-methyl-1,2,6b,7,8,8a,10,12,12a,12b-decahydronaphtho[2′,1′:4,5]indeno[1,2-c]pyrazol-12-yl)-N-(pyrazin-2-yl)propanamide]	90	31	59
Cn1ccc(NC(=O)CC[C@@H]2c3c[nH]nc3[C@@]3(C)CCC4c5cccc(F)c5CCC4C23)n1 (stereo partly drawn) [Compound 54, 3-((8aS,12S)-3-fluoro-8a-methyl-1,2,6b,7,8,8a,10,12,12a,12b-decahydronaphtho[2′,1′:4,5]indeno[1,2-c]pyrazol-12-yl)-N-(1-methyl-1H-pyrazol-3-yl)propanamide]	87	68	52
C[C@]12CCC3c4cccc(F)c4CCC3C1[C@H](CCC(=O)N1Cc3ccccc3C1)c1c[nH]nc12 (stereo partly drawn) [Compound 57, 3-((8aS,12S)-3-fluoro-8a-methyl-1,2,6b,7,8,8a,10,12,12a,12b-decahydronaphtho[2′,1′:4,5]indeno[1,2-c]pyrazol-12-yl)-1-(isoindolin-2-yl)propan-1-one]	92	58	48
COc1ccc(NC(=O)CC[C@@H]2c3c[nH]nc3[C@@]3(C)CCC4c5ccc(F)cc5CCC4C23)nc1 (stereo partly drawn) [Compound 84, 3-((8aS,12S)-4-fluoro-8a-methyl-1,2,6b,7,8,8a,10,12,12a,12b-decahydronaphtho[2′,1′:4,5]indeno[1,2-c]pyrazol-12-yl)-N-(5-methoxypyridin-2-yl)propanamide]	87	148	27
CC(C)c1ccc(NC(=O)CC[C@@H]2c3c[nH]nc3[C@@]3(C)CCC4c5ccc(F)cc5CCC4C23)nc1 (stereo partly drawn) [Compound 87, 3-((8aS,12S)-4-fluoro-8a-methyl-1,2,6b,7,8,8a,10,12,12a,12b-decahydronaphtho[2′,1′:4,5]indeno[1,2-c]pyrazol-12-yl)-N-(5-isopropylpyridin-2-yl)propanamide]	87	127	16
COc1ccnc(NC(=O)CC[C@@H]2c3c[nH]nc3[C@@]3(C)CCC4c5ccc(F)cc5CCC4C23)c1 (stereo partly drawn) [Compound 90, 3-((8aS,12S)-4-fluoro-8a-methyl-1,2,6b,7,8,8a,10,12,12a,12b-decahydronaphtho[2′,1′:4,5]indeno[1,2-c]pyrazol-12-yl)-N-(4-methoxypyridin-2-yl)propanamide]	70	77	30
Cc1ccnc(NC(=O)CC[C@@H]2c3c[nH]nc3[C@@]3(C)CCC4c5ccc(F)cc5CCC4C23)c1 (stereo partly drawn) [Compound 93, 3-((8aS,12S)-4-fluoro-8a-methyl-1,2,6b,7,8,8a,10,12,12a,12b-decahydronaphtho[2′,1′:4,5]indeno[1,2-c]pyrazol-12-yl)-N-(4-methylpyridin-2-yl)-propanamide]	79	66	31
